# Patent US10441566B2, “Use of butylidenephthalide” (EVERFRONT BIOTECH INC., priority 2016, dated 2019)
# Tests used:
# Format in all cases: cell-based
# α-SMA gene = assay: Q-PCR expression of myofibroblast marker gene α-SMA in fBMFs; settings: fBMF-1 and fBMF-2, BP 0, 25, or 50 μg/mL, 48 hours, with the increment in concentration, FIG. 4
# Excerpt: (§1) Two groups of buccal mucosal fibroblasts obtained from normal oral buccal mucosa (hereinafter abbreviated as “BMF-1” and “BMF-2”; or collectively called “BMFs”), and two groups of fibrotic buccal mucosal fibroblasts obtained from fibrotic oral buccal mucosa (hereinafter abbreviated as “fBMF-1” and “fBMF-2”; or collectively called “fBMFs”) were respectively subjected to the following procedures: seeding the cells into a 24-well plate by a concentration of 2×10^4 cells/well to cultivate the cells to reach a 80% confluence, and then respectively treating the cells with different concentrations (0, 12.5, 25, 50, 100, or 200 μg/mL) of butylidenephthalide (BP) for 48 hours. […]
# (§2) It is known that during the process of the fibrosis of tissue, the tissue cells would differentiate and become myofibroblasts, wherein the α-SMA gene, Col1a1 gene, and S100A4 gene are the maker genes of myofibroblasts. Thus, in this experiment, a quantitative real-time polymerase chain reaction (Q-PCR) was conducted to investigate whether butylidenephthalide (BP) can inhibit the expressions of α-SMA gene, Col1a1 gene, and S100A4 gene in oral submucosal tissue cells. […]
# [1] = system: fibrotic buccal mucosal fibroblasts (fBMFs); assay: Collagen gel contraction assay; settings: fBMFs in collagen gel, BP 0, 25, or 50 μg/mL, 48 hours, with the increment in concentration, FIGS. 5A and 5B
# Protocol: The BMF-1, BMF-2, fBMF-1, and fBMF-2 provided by [Preparation example A] were respectively dissolved in 0.5 mL of 2 mg/mL collagen solution (purchased from Sigma-Aldrich), and the mixtures thus obtained were moved into a 24-well plate. Then, the 24-well plate was placed in an incubator at […] and 5% CO2 for 2 hours to coagulate the collagen gels. The gels thus obtained were respectively called “BMFs group”, and “fBMFs group” gels. Thereafter, the coagulated gels were disengaged from the culture plate, and 0.5 mL of a medium containing different concentrations (0, 25, or 50 μg/mL) of butylidenephthalide (BP) was added thereinto to incubate with the gels for 48 hours. The contraction of gel in each group were observed and photographed. Finally, the relative gel area (%) of each “fBMFs group” was calculated by using the image-analyzed software, ImageJ (National Institutes of Health, USA) and using the results of “BMFs group” not being treated with butylidenephthalide (BP) as a basis.
# ZEB1 gene = assay: Q-PCR expression of EMT marker gene ZEB1 in fBMFs; settings: fBMF-1 and fBMF-2, BP 0, 25, or 50 μg/mL, 48 hours, with the increment in concentration, FIG. 2
# Excerpt: as §1
# (§3) It is known that during the process of epithelial-mesenchymal transition (EMT), the expressions of Twist gene, Snail gene, and ZEB1 gene in the cells will increase, and thus, these genes are known as the marker genes of EMT. In this experiment, quantitative real-time polymerase chain reaction (Q-PCR) was conducted to investigate whether butylidenephthalide (BP) can affect the expressions of Twist gene, Snail gene, and ZEB1 gene in oral submucosal tissue cells. […]
# [2] = system: buccal mucosal fibroblasts (BMFs; BMF-1, BMF-2); assay: MTT cytotoxicity evaluation, relative viability of buccal mucosal fibroblasts; settings: BP at a concentration of no more than 50 μg/mL, 48 hours, FIG. 1
# Excerpt: as §1
# S100A4 gene = assay: Q-PCR expression of myofibroblast marker gene S100A4 in fBMFs; settings: fBMF-1 and fBMF-2, BP 0, 25, or 50 μg/mL, 48 hours, with the increment in concentration, FIG. 4
# Excerpt: as §1, §2
# Twist gene = assay: Q-PCR expression of EMT marker gene Twist in fBMFs; settings: fBMF-1 and fBMF-2, BP 0, 25, or 50 μg/mL, 48 hours, with the increment in concentration, FIG. 2
# Excerpt: as §1, §3
# Snail gene = assay: Q-PCR expression of EMT marker gene Snail in fBMFs; settings: fBMF-1 and fBMF-2, BP 0, 25, or 50 μg/mL, 48 hours, with the increment in concentration, FIG. 2
# Excerpt: as §1, §3
# [3] = system: fibrotic buccal mucosal fibroblasts (fBMFs; fBMF-1, fBMF-2); assay: MTT cytotoxicity evaluation, relative viability of fibrotic buccal mucosal fibroblasts; settings: BP at a concentration of no more than 50 μg/mL, 48 hours, FIG. 1
# Excerpt: as §1
# [4] = system: fibrotic buccal mucosal fibroblasts (fBMFs); assay: Transwell cell migration assay; settings: BP 0, 25, or 50 μg/mL, 24 hours migration, FIGS. 3A and 3B
# Protocol: In this experiment, a transwell cell migration assay system (Transwell® system; purchased from Corning company, UK) and a polycarbonate membrane with a pore size of 8 μm (purchased from Corning company, UK) were used to further investigate whether butylidenephthalide (BP) can inhibit the abilities of oral submucosal tissue cells to crawl and invade.
# First, the cell medium containing 10% FBS (fetal bovine serum) was added into the lower chamber, and an apparatus of polycarbonate membrane was placed on the bottom of a cell culture plate, i.e., upper chamber. On the other hand, the BMF-1, BMF-2, fBMF-1, and fBMF-2 provided by [Preparation example A] (2×10^4 cells/group) were evenly mixed with a 250 μL serum-free medium that is externally added with butylidenephthalide (BP) by a concentration of 0, 25, or 50 μg/mL. Then, the mixtures thus obtained were respectively added into the upper chambers. Thereafter, the whole transwell cell migration assay system was placed in an incubator to induce cell migration for 24 hours. […] Then, the polycarbonate membrane were fixed with 4% paraformaldehyde for 10 minutes and stained with 0.1% crystal violet. […] The cell numbers on the membrane were calculated into the relative cell migration ability (%) by using the results of BMFs not treated with butylidenephthalide (BP) as a basis.
# Col1a1 gene = assay: Q-PCR expression of myofibroblast marker gene Col1a1 in fBMFs; settings: fBMF-1 and fBMF-2, BP 0, 25, or 50 μg/mL, 48 hours, with the increment in concentration, FIG. 4
# Excerpt: as §1, §2
smiles,measurement,setting,value
CCCC=C1OC(=O)c2ccccc21 [butylidenephthalide],expression of α-SMA gene,α-SMA gene,significantly decreased
same,gel contraction (relative gel area),[1],significantly mitigate
same,expression of ZEB1 gene,ZEB1 gene,significantly decreased
same,growth (relative viability) of BMFs,[2],will not be affected
same,expression of S100A4 gene,S100A4 gene,significantly decreased
same,expression of Twist gene,Twist gene,significantly decreased
same,expression of Snail gene,Snail gene,significantly decreased
same,growth (relative viability) of fBMFs,[3],will not be affected
same,cells which migrated from the upper chamber to the lower chamber (relative migration ability),[4],decrease with the increment in the concentration
same,expression of Col1a1 gene,Col1a1 gene,significantly decreased
